Measured values as given in patent publication US20260297106A1, “SPIROCYCLIC SUBSTITUTED OXOISOINDOLINYL PIPERIDINE-2,6-DIONE COMPOUND” (Bristol-Myers Squibb Company, priority 2023, published 2026).
Read-outs that look alike come from different tables or passages of the source.

Experiments:
IKZF3 Aiolos = IKZF3 Aiolos (Homo sapiens, UniProt Q96SW2+Q9UKT9); experiment: Human CD8+ T Cell Reprogramming Assay (IKZF3 Aiolos); assay type: cell-based; set-up: Cryopreserved healthy donor human peripheral blood mononuclear cells; endogenous in cells; host or cells: primary human PBMC, CD8+ T cells read by flow cytometry
Procedure: Cryopreserved healthy donor human peripheral blood mononuclear cells (PBMC) from healthy donors were thawed and seeded at 500,000 cells/well of 96-well round bottom plates in RPMI 1640 media (Gibco) supplemented with 10% FBS, Pen/Strep (Gibco), MEM-NEAA (Gibco), and sodium pyruvate (Gibco). Cells were treated with titrated doses of compound for 24 hours at 37° C., 5% CO2 before analyzing by flow cytometry.
(§1) For flow cytometry staining, cells were washed twice with flow cytometry staining buffer (Thermo Fisher) and incubated in Human Tru-stain Fc block (Biolegend) for 10 minutes before adding eFluor780 viability dye (Thermo Fisher) and surface marker antibody cocktail containing LD-eFluor780, CD3-BUV-395, CD4-BUV805, CD8-FITC, and CD25-BV605 for 30 minutes at 4° C. Cells were then fixed and permeabilized by incubation with permeabilization buffer (eBioscience FoxP3 buffer set 00-5523-00) for 30 minutes at 4° C. as per the kit manufacturer's instructions. Cells were washed twice with the Perm/Wash buffer supplied in the kit as per the manufacturer's instructions and incubated overnight at 4° C. with an intracellular antibody cocktail comprised of antibodies specific for the transcription factors (i.e., Foxp3-BV421, HELIOS-PE-Cy7, EOS-PE, IKAROS-PECF594, AIOLOS-AF647). Cells were washed twice with Perm/Wash buffer and resuspended in flow cytometry staining buffer (Thermo Fisher) prior to acquisition. Sample acquisition and analysis was performed using a BD LSRFortessa (BD Biosciences) flow cytometer. Single-stain controls for each fluorochrome were prepared using UltraComp eBead Compensation Beads (Thermo Fisher). Data were analyzed using FlowJo version 10 and GraphPad Prism Software.
(§2) Table D-1 lists the maximum observed degradation of the IKZF1 protein and IKZF3 protein as measured in the Human CD8^+ T Cell Reprogramming assay. The results in Table D-1 were rounded to two digits. In the Human CD8^+ T Cell Reprogramming assay, a value of 100% indicated no detectable protein remaining or complete degradation of the protein; and a value of 0% indicated no detectable degradation of the protein by the test compound.

IKZF4 Eos = target: T1, IKZF4 Eos (Homo sapiens, UniProt Q96SW2+Q9H2S9); experiment: Human Regulatory T Cell Reprogramming Assay (IKZF4 Eos); assay type: cell-based; details: CD4+ CD127low CD25+ Treg cells, 12-13 days; for DC50: concentration reducing protein level by 50% vs DMSO; for Dmax: Regulatory T cell, human, read-out: Maximum Observed Degradation IKZF4 Eos
T1 construct: T cells were isolated from fresh healthy leukopaks; endogenous in cells; host or cells: FACS-sorted primary human CD4+ CD127low CD25+ Treg cells from healthy leukopaks
Procedure: Human CD4^+ T cells were isolated from fresh healthy leukopaks (Stemcell Technologies) using the RosetteSep Human CD4^+ T cell enrichment cocktail (Stemcell Technologies) and Ficoll density gradient centrifugation. Leukopaks were diluted with an equal volume of phosphate-buffered saline (PBS [Gibco]) supplemented with 2% fetal bovine serum (FBS, VWR Lifescience) and incubated with RosetteSep Human CD4^+ T cell enrichment cocktail for 20 minutes before layering on Ficoll-Paque Plus solution (GE Health Care). The cell-rich interface layer was harvested and washed twice with PBS supplemented with 2% FBS. Regulatory T cells were then isolated manually using the EasySep Human CD4 CD1271WCD25^+ Regulatory T cell isolation kit (Stemcell Technologies) according to the manufacturer's instructions. Cells were rested overnight in Roswell Park Memorial Institute (RPMI) 1640 media (Gibco) supplemented with 10% FBS, Pen/Strep (Gibco), MEM-NEAA (Gibco), and sodium pyruvate (Gibco) in a humidified incubator (37° C., 5% CO2). Cells were then stained for CD4 (clone: RPA-T4, Biolegend), CD25 (clone: 2A3, BD Biosciences), and CD127 (clone: hIL-7R-M21, BD Biosciences). CD4^+ CD127^lowCD25^+ cells were sorted on a BD FACS Aria Fusion sorter to a purity of 95% or greater. Sorted cells were immediately used or cryopreserved for downstream assays.
Fresh or cryopreserved FACS-sorted CD4^+ CD127^lowCD25^+ Treg cells were cultured at 25,000-50,000 cells/well of 96-well round bottom plates in RPMI 1640 media (Gibco) supplemented with 10% FBS, Pen/Strep (Gibco), MEM-NEAA (Gibco), and sodium pyruvate (Gibco). Cells were stimulated with Treg Xpander beads (Thermo Fisher) at cells-to-beads ratio of 1:4 in the presence of 500 U/mL recombinant human IL-2 (Proleukin). Compounds were added at titrated doses and cells were incubated at 37° C., 5% CO2 for 12-13 days. Recombinant human IL-2 and compound were replenished every 2-3 days during the entire culture duration. On day 12 or 13, cells were restimulated with phorbol 12-myristate 13-acetate (PMA) and ionomycin in the presence of the protein transport inhibitors brefeldin A and monensin (eBioscience Cell Stimulation Cocktail plus protein transport inhibitors, 500×, Catalog number 00-4975-93) before proceeding with flow cytometry staining and analysis.
as §1, with “cocktail” for “cocktail containing LD-eFluor780, CD3-BUV-395, CD4-BUV805, CD8-FITC, and CD25-BV605”, “FoxP3 transcription factor staining” for “permeabilization”, “(Thermo Fisher)” for “(eBioscience FoxP3 buffer set 00-5523-00)”, “shown in Table C.” for “(i.e., Foxp3-BV421, HELIOS-PE-Cy7, EOS-PE, IKAROS-PECF594, AIOLOS-AF647).”, “Single stain” for “Single-stain”
as §2, with “C-1” for “D-1”, “IKZF2” for “IKZF1”, “IKZF4” for “IKZF3”, “Regulatory” for “CD8^+”

[1] = human PBMC, CD8+ T cells, 24 hours, read-out: Maximum Observed Degradation IKZF3 Aiolos

Chain of IKZF3 Aiolos (Q9UKT9 whole entry): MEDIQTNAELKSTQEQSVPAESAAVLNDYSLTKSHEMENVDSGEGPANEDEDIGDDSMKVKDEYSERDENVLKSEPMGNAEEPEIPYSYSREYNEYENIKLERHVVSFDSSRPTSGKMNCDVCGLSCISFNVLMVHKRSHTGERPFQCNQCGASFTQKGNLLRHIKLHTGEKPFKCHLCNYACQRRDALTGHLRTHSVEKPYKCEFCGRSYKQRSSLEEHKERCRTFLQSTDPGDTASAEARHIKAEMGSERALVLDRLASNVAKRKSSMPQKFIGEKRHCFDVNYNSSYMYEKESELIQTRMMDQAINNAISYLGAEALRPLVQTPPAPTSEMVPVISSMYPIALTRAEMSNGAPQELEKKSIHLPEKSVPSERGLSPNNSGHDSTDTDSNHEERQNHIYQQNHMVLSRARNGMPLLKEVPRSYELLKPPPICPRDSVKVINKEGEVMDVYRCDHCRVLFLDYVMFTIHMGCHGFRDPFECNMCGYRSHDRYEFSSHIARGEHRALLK
Chain of IKZF3 Aiolos (Q96SW2 whole entry): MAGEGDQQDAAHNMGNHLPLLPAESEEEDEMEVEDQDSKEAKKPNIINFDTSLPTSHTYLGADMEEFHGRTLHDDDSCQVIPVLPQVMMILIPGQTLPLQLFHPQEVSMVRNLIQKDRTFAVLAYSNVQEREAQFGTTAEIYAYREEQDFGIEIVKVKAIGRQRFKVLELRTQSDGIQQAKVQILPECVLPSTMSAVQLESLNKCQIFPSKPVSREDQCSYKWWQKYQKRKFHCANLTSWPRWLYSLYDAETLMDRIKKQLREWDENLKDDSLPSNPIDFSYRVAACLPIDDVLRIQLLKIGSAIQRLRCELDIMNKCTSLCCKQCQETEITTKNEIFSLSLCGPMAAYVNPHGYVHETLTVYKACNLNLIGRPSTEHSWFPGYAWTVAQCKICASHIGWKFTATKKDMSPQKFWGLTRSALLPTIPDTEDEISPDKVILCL
Chain of IKZF3 Aiolos (Q16531 whole entry partner): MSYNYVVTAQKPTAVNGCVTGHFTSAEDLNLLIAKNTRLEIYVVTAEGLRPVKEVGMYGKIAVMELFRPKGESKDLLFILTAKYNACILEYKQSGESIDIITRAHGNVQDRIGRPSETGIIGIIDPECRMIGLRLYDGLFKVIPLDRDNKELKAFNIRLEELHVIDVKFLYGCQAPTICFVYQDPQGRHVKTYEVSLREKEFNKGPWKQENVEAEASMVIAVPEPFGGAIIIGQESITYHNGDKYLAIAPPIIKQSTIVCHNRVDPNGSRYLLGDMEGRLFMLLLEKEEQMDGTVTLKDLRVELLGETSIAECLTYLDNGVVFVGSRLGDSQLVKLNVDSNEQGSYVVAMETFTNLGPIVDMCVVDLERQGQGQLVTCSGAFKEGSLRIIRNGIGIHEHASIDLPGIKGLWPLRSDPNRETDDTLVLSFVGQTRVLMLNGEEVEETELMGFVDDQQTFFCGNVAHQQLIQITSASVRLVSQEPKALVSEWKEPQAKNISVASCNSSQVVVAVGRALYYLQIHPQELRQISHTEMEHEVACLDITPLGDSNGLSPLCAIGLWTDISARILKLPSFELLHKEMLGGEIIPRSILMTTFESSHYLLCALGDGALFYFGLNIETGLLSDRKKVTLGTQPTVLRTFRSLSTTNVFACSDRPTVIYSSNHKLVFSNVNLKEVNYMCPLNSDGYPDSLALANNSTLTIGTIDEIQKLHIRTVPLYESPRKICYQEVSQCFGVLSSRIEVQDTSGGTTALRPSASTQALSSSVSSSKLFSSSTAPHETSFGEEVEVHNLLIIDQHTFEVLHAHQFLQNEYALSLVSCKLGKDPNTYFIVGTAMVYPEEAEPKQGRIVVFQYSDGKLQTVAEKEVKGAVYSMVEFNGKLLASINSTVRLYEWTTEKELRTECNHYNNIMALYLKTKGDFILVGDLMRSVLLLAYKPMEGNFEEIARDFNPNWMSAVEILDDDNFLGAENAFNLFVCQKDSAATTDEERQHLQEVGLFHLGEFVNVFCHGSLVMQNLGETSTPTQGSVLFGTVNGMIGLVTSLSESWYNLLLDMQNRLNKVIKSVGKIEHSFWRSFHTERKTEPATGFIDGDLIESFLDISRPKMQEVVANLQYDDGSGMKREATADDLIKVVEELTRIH
T1 sequence (Q9H2S9 whole entry): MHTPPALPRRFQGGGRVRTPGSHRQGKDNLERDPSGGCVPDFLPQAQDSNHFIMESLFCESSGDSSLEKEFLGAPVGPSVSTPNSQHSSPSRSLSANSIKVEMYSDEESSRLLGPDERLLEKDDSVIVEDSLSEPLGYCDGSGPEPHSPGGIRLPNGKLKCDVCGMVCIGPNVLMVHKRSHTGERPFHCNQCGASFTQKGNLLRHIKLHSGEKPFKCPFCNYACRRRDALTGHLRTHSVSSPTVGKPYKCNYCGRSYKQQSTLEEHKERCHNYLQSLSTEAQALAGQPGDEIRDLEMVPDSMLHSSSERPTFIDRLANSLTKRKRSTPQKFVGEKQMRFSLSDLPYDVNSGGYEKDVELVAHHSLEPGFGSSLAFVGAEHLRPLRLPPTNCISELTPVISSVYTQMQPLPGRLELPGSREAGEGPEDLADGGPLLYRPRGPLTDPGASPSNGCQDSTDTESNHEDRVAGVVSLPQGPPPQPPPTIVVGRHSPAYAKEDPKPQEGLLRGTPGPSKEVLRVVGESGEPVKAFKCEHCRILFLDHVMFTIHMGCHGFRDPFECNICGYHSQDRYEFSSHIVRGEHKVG
T1 sequence (Q96SW2 whole entry): as the sequence (Q96SW2 whole entry) above
T1 sequence (Q16531 whole entry partner): as the sequence (Q16531 whole entry partner) above

| Compound | Dmax (IKZF3 Aiolos; [1]) [%] | DC50 (IKZF4 Eos) [nM] | Dmax (IKZF4 Eos) [%] | DC50 (IKZF3 Aiolos; human PBMC, CD8+ T cells, 24 hours, concentration reducing protein level by 50% vs DMSO) [nM] | Dmax (IKZF3 Aiolos; human, 24 h, Table D-1, read-out: decreased the level of IKZF3 (Aiolos)) [%] | Dmax (IKZF3 Aiolos; human, 24 h, Table E comparison, from Table D-1, read-out: IKZF3 Aiolos max % deg. observed) [%] |
| --- | --- | --- | --- | --- | --- | --- |
| O=C1CCC(N2Cc3c(ccc(-c4cc(CN5CC(c6ccccc6)C5)ccn4)c3F)C2=O)C(=O)N1 (stereo not drawn) [Comparative Compound A, 3-(4-fluoro-1-oxo-5-(4-((3-phenylazetidin-1-yl)methyl)pyridin-2-yl)isoindolin-2-yl) piperidine-2,6-dione] | 39 | 0.1 | 92 | – | – | – |
| Nc1nc(-c2ccc3c(c2)CN(C2CCC(=O)NC2=O)C3=O)ccc1CN1CC2(CCC2)C1 (stereo not drawn) [Comparative Compound B, 3-(5-(5-((2-azaspiro[3.3]heptan-2-yl)methyl)-6-aminopyridin-2-yl)-1-oxoisoindolin-2-yl) piperidine-2,6-dione] | 2 | 1 | 95 | – | – | – |
| Nc1nc(-c2ccc3c(c2F)CN(C2CCC(=O)NC2=O)C3=O)ccc1CN1CC2(CCCOC2)C1 (stereo not drawn) [Example 1, 3-(5-(5-((6-oxa-2-azaspiro[3.5]nonan-2-yl)methyl)-6-aminopyridin-2-yl)-4-fluoro-1-oxoisoindolin-2-yl) piperidine-2,6-dione] | 62 to 66 | 3.4 | 65 | 23 to 35 | 62 to 66 | 62 to 66 |
